We go through 1 molecule from patent publication US9642819B2, “Low dosage serotonin 5-HT2A receptor agonist to suppress inflammation” (BOARD OF SUPERVISORS OF LOUISIANA STATE UNIVERSITY AND …, priority 2008, dated 2017).

One experiment deals with IL-6 expression. Nature of the experiment: TNF-α induced IL-6 expression in rat primary aortic endothelial cells. In kind it is cell-based. To be noted: 10 pM, 60 minutes prior to TNF-alpha 10 ng/ml. Here is the method: (§1) Experiments were conducted to analyze for the effect of 5-HT2A receptor activation on proinflammatory marker expression in other cell types. Human neuroblastoma cells (SHSY5Y) and rat glioma cells (C6) can be obtained from the American Type Culture Collection (Manassas, Va.), but were provided Purdue University. The cells were grown in DMEM+10% FBS. DMEM was made and provided by the Cell and Molecular Core of the Mentoring in Cardiovascular Biology COBRE center at LSUHSC-NO. FBS was purchased from Invitrogen (Carlsbad, Calif.). Primary rat aortic endothelial cells were prepared fresh and provided by the Cell and Molecular Core of the Mentoring in Cardiovascular Biology COBRE center at LSUHSC-NO. Cells were tested at passages 3-4. Cells were grown in endothelial cell growth medium (Cell Applications, Inc.). Primary rat bronchoaveolar macrophage cells were obtained by lung lavage from rats and used at day 3 or 4 post plating in DMEM+10% FBS.
(§2) All treatments with 5-HT2A receptor agonists occurred 1 hour prior to the addition of TNF-alpha (10 ng/ml) or LPS (100 ng or 1 mg) depending on the experiment. All RNA isolations, cDNA synthesis, QPCR gene expression assays examining ICAM1, VCAM1, and IL6, and data analysis were performed as described above in Example 1, except the primers were different for the human cell experiment. […]

For a further experiment, the target named is 5-HT2A receptor (Rattus norvegicus, UniProt P14842). As to conditions: read-out: EC50 phosphoinositide turnover; standard pharmacological assay of 5-HT2A receptor activity; cited from earlier work.
5-HT2A receptor, sequence (P14842 whole entry): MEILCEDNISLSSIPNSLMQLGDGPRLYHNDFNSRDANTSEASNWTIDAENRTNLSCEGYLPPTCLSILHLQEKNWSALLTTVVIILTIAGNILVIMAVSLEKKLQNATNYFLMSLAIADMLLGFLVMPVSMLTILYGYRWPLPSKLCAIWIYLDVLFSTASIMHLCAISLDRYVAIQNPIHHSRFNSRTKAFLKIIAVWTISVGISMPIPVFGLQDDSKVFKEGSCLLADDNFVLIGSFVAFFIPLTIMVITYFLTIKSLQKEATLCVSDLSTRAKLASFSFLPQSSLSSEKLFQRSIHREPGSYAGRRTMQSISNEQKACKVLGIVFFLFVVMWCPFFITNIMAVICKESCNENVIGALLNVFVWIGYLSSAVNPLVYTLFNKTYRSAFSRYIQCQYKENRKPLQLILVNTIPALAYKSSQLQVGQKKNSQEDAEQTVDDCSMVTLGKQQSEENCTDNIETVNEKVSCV
In a further experiment the test system is IL-6 gene expression. In words: TNF-α induced IL-6 gene expression in primary rat aortic smooth muscle cells. In kind it is cell-based. As to conditions: RASM passage 4, media with FBS, 24 h pretreatment, TNF-α 10 ng/ml, read-out: IC50 for proinflammatory gene expression inhibition for IL-6. As for the experimental part: RASM cells and treatment. Rat aortic smooth muscle (RASM) cells were isolated from adult 180 g male Sprague-Dawley rats and provided by the Cell and Molecular Core Facility in the Department of Pharmacology at LSUHSC-NO. Isolated RASM cells were grown in M-199 media containing 10% fetal bovine serum (Gibco), 100 units/mL penicillin, and 100 µg/mL streptomycin, and incubated at 37° C. in 5% CO2. Cells for all assays were used between passages 3 and 5. Prior to treatments, cells were grown in M-199 media with 10% fetal bovine serum (FBS) until 30-50% confluent. […]
RNA isolation and Quantitative Realtime-PCR. […]
The sequences of primers used are: 5-HT2AR (5-hydroxytryptamine 2A receptor): forward primer 5′-[…]-3′ (SEQ ID NO: 1), reverse primer, 5′[…]-3′ (SEQ ID NO: 2); ICAM-1 (intracellular adhesion molecule 1): forward primer, 5′-[…]-3′ (SEQ ID NO: 3, reverse primer, 5′-[…]-3′ (SEQ ID NO: 4); VCAM-1 (vascular adhesion molecule 1): forward primer, 5′-[…]-3′ (SEQ ID NO: 5), reverse primer, 5′-[…]-3′ (SEQ ID NO: 6); IL-6 (interleukin-6): forward primer, 5′-[…] […]-3′ (SEQ ID NO: 7), reverse primer, 5′-[…]-3′ (SEQ ID NO: 8); and cyclophillin B (control amplicon): forward primer, 5′-[…]-3′ (SEQ ID NO: 9), reverse primer, 5′-[…]-3′ (SEQ ID NO: 10). […] Quantitative determination of gene expression levels using a 2-step cycling protocol was performed on a MyIQ-5 Cycler (Bio-Rad, Hercules Calif.). […]

Another experiment has as its system ICAM-1 gene expression. Nature of the experiment: TNF-α induced ICAM-1 gene expression in human neuroblastoma cells (SHSY5Y). It counts as cell-based. As for the experimental part: as §1, §2

What is called EC50 is the concentration needed to bring the measured effect to its halfway point. The IC50 is the concentration that gives 50% inhibition. Take `COc1cc(C[C@@H](C)N)c(OC)cc1I` [(R)-DOI, (R)-1-(2,5-dimethoxy-4-iodophenyl)-2-aminopropane]: the “effect on TNF-α-induced IL-6 expression in aortic endothelial cells” value with IL-6 expression is “potently inhibited”. On 5-HT2A receptor, the EC50 is 10 to 20 nM. The half-maximal inhibitory concentration (IC50) with IL-6 gene expression was 0.0103 nM; in the experiment with ICAM-1 gene expression (Homo sapiens, Neuroblastoma cell, 1 hour prior to TNF-α 10 ng/ml, read-out: IC50 for ICAM-1 gene expression inhibition in human neuroblastoma cells), around 0.8 nM. Moreover, the “effect on ICAM-1 gene expression in human neuroblastoma cells” value in the experiment with ICAM-1 gene expression was “blocked”.
